# Reference: patent US20230278972A1, “SUBSTITUTED HALOALKYL SULFONANILIDE HERBICIDES” (FMC Corporation, priority 2020, published 2023)
# Columns and labels:
# Type in all cases: in vivo
# [1] = tested on: galium (catchweed bedstraw, Galium aparine); assay: Test A postemergence, galium; details: Postemergence, 0 to 100 scale (0 no effect, 100 complete control)
# In short: (§1)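 Compounds in non-phytotoxic solvent with surfactant. Soil: loam/sand. Preemergence via directed soil spray after seeding; postemergence on seedlings 2–10 cm, one- to two-leaf.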
# corn (Zea mays) = assay: Test A postemergence, corn; details: Postemergence, 0 to 100 scale (0 no effect, 100 complete control)
# In short: (§2)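 Seeds are sown in loam mixed with sand and sprayed on the soil surface right after planting for the preemergence test. Postemergence pots are sprayed once seedlings reach 2 to 10 cm at the one- to two-leaf stage. The same surfactant-containing, non-phytotoxic solvent formulation serves both.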
# [2] = tested on: pigweed (Amaranthus retroflexus); assay: Test A postemergence, pigweed; details: Postemergence, 0 to 100 scale (0 no effect, 100 complete control)
# In short: as §2
# [3] = tested on: blackgrass (Alopecurus myosuroides); assay: Test A postemergence, blackgrass; details: Postemergence, 0 to 100 scale (0 no effect, 100 complete control)
# In short: as §2
# kochia (Bassia scoparia) [4] = assay: Test A postemergence, kochia; details: Postemergence, 0 to 100 scale (0 no effect, 100 complete control)
# In short: as §2
# [5] = tested on: barnyardgrass (Echinochloa crus-galli); assay: Test A preemergence, barnyardgrass; details: Preemergence; for Plant response rating, Barnyardgrass: 0 to 100 scale (0 no effect, 100 complete control); for Barnyardgrass plant response rating: visual injury on 0 to 100 scale (0 no effect, 100 complete control), approximately 10 days
# In short: as §2
# kochia (Bassia scoparia) [6] = assay: Test A preemergence, kochia; details: Preemergence; for Plant response rating, Kochia: 0 to 100 scale (0 no effect, 100 complete control); for Kochia plant response rating: visual injury on 0 to 100 scale (0 no effect, 100 complete control), approximately 10 days
# In short: as §2
# [7] = tested on: wheat (Triticum aestivum); assay: Test A postemergence, wheat; details: Postemergence, 0 to 100 scale (0 no effect, 100 complete control)
# In short: as §1
# [8] = tested on: Ryegrass, Italian (Italian ryegrass, Lolium multiflorum); assay: Test A postemergence, Ryegrass, Italian; details: Postemergence, 0 to 100 scale (0 no effect, 100 complete control)
# In short: as §2
# [9] = tested on: Foxtail, Giant (giant foxtail, Setaria faberi); assay: Test A postemergence, Foxtail, Giant; details: Postemergence, 0 to 100 scale (0 no effect, 100 complete control)
# In short: as §2
# [10] = tested on: ragweed (common ragweed, Ambrosia artemisiifolia); assay: Test A preemergence, ragweed; details: Preemergence; for Plant response rating, Ragweed: 0 to 100 scale (0 no effect, 100 complete control); for Ragweed plant response rating: visual injury on 0 to 100 scale (0 no effect, 100 complete control), approximately 10 days
# In short: as §2
# [11] = tested on: Foxtail, Giant (giant foxtail, Setaria faberi); assay: Test A preemergence, Foxtail, Giant; details: Preemergence; for Plant response rating, Foxtail, Giant: 0 to 100 scale (0 no effect, 100 complete control); for Foxtail, Giant plant response rating: visual injury on 0 to 100 scale (0 no effect, 100 complete control), approximately 10 days
# In short: as §2
# [12] = tested on: ragweed (common ragweed, Ambrosia artemisiifolia); assay: Test A postemergence, ragweed; details: Postemergence, 0 to 100 scale (0 no effect, 100 complete control)
# In short: as §2
# [13] = tested on: pigweed (Amaranthus retroflexus); assay: Test A preemergence, pigweed; details: for Plant response rating, Pigweed: 0 to 100 scale (0 no effect, 100 complete control); for Pigweed plant response rating: visual injury on 0 to 100 scale (0 no effect, 100 complete control), approximately 10 days
# In short: as §1
# [14] = tested on: Ryegrass, Italian (Italian ryegrass, Lolium multiflorum); assay: Test A preemergence, Ryegrass, Italian; details: Preemergence; for Plant response rating, Ryegrass, Italian: 0 to 100 scale (0 no effect, 100 complete control); for Ryegrass, Italian plant response rating: visual injury on 0 to 100 scale (0 no effect, 100 complete control), approximately 10 days
# In short: as §2
# [15] = tested on: barnyardgrass (Echinochloa crus-galli); assay: Test A postemergence, barnyardgrass; details: Postemergence, 0 to 100 scale (0 no effect, 100 complete control)
# In short: as §1
# [16] = 500 g ai/ha, visual injury approx. 10 days
# [17] = 125 g ai/ha, visual injury, approx. 10 days
# [18] = 125 g ai/ha, visual injury approx. 10 days
# [19] = 31 g ai/ha, visual injury, approx. 10 days
# [20] = 500 g ai/ha, visual injury, approx. 10 days
smiles,measurement,setting,value
Cc1cc(C)c(N2CCC3(CCCC3)C2=O)cc1NS(=O)(=O)C(F)(F)F [Compound 270],"Plant response rating, Galium",[1]; 125 g ai/ha,80
same,"Plant response rating, Galium",[1]; [16],90
same,"Plant response rating, Corn",corn (Zea mays); 125 g ai/ha,0
same,"Plant response rating, Corn",corn (Zea mays); [16],50
same,"Plant response rating, Pigweed",[2]; 125 g ai/ha,60
same,"Plant response rating, Pigweed",[2]; [16],90
same,"Plant response rating, Blackgrass",[3]; 125 g ai/ha,20
same,"Plant response rating, Blackgrass",[3]; [16],70
same,"Plant response rating, Kochia",kochia (Bassia scoparia) [4]; 125 g ai/ha,10
same,"Plant response rating, Kochia",kochia (Bassia scoparia) [4]; [16],50
same,"Plant response rating, Barnyardgrass",[5]; [17],90
same,Barnyardgrass plant response rating,[5]; 500 g ai/ha,90
same,"Plant response rating, Kochia",kochia (Bassia scoparia) [6]; [17],0
same,Kochia plant response rating,kochia (Bassia scoparia) [6]; 500 g ai/ha,0
same,"Plant response rating, Wheat",[7]; 125 g ai/ha,40
same,"Plant response rating, Wheat",[7]; [16],70
same,"Plant response rating, Ryegrass, Italian",[8]; 125 g ai/ha,0
same,"Plant response rating, Ryegrass, Italian",[8]; [16],70
same,"Plant response rating, Foxtail, Giant",[9]; 125 g ai/ha,0
same,"Plant response rating, Foxtail, Giant",[9]; [16],20
same,"Plant response rating, Ragweed",[10]; [17],0
same,Ragweed plant response rating,[10]; 500 g ai/ha,80
same,"Plant response rating, Foxtail, Giant",[11]; [17],100
same,"Foxtail, Giant plant response rating",[11]; 500 g ai/ha,100
same,"Plant response rating, Ragweed",[12]; 125 g ai/ha,30
same,"Plant response rating, Ragweed",[12]; [16],60
same,"Plant response rating, Pigweed",[13]; [17],70
same,Pigweed plant response rating,[13]; 500 g ai/ha,100
same,"Plant response rating, Ryegrass, Italian",[14]; [17],100
same,"Ryegrass, Italian plant response rating",[14]; 500 g ai/ha,100
same,"Plant response rating, Barnyardgrass",[15]; 125 g ai/ha,0
same,"Plant response rating, Barnyardgrass",[15]; [16],70
Cc1cc(Cl)c(NS(=O)(=O)C(F)(F)F)cc1C(=O)N1CCOC(C)C1 (stereo not drawn) [Compound 1],"Plant response rating, Galium",[1]; 31 g ai/ha,90
same,"Plant response rating, Galium",[1]; [18],100
same,"Plant response rating, Corn",corn (Zea mays); 31 g ai/ha,20
same,"Plant response rating, Corn",corn (Zea mays); [18],30
same,"Plant response rating, Pigweed",[2]; 31 g ai/ha,50
same,"Plant response rating, Pigweed",[2]; [18],80
same,"Plant response rating, Blackgrass",[3]; 31 g ai/ha,0
same,"Plant response rating, Blackgrass",[3]; [18],50
same,"Plant response rating, Kochia",kochia (Bassia scoparia) [4]; 31 g ai/ha,20
same,"Plant response rating, Kochia",kochia (Bassia scoparia) [4]; [18],60
same,"Plant response rating, Barnyardgrass",[5]; [19],0
same,Barnyardgrass plant response rating,[5]; 125 g ai/ha,80
same,"Plant response rating, Kochia",kochia (Bassia scoparia) [6]; [19],40
same,Kochia plant response rating,kochia (Bassia scoparia) [6]; 125 g ai/ha,70
same,"Plant response rating, Wheat",[7]; 31 g ai/ha,30
same,"Plant response rating, Wheat",[7]; [18],50
same,"Plant response rating, Ryegrass, Italian",[8]; 31 g ai/ha,0
same,"Plant response rating, Ryegrass, Italian",[8]; [18],40
same,"Plant response rating, Foxtail, Giant",[9]; 31 g ai/ha,20
same,"Plant response rating, Foxtail, Giant",[9]; [18],70
same,"Plant response rating, Ragweed",[10]; [19],30
same,Ragweed plant response rating,[10]; 125 g ai/ha,50
same,"Plant response rating, Foxtail, Giant",[11]; [19],20
same,"Foxtail, Giant plant response rating",[11]; 125 g ai/ha,90
same,"Plant response rating, Ragweed",[12]; 31 g ai/ha,80
same,"Plant response rating, Ragweed",[12]; [18],90
same,"Plant response rating, Pigweed",[13]; [19],70
same,Pigweed plant response rating,[13]; 125 g ai/ha,100
same,"Plant response rating, Ryegrass, Italian",[14]; [19],40
same,"Ryegrass, Italian plant response rating",[14]; 125 g ai/ha,90
same,"Plant response rating, Barnyardgrass",[15]; 31 g ai/ha,70
same,"Plant response rating, Barnyardgrass",[15]; [18],90
CCn1c(=O)c(-c2cc(NS(=O)(=O)C(F)(F)F)c(C)cc2C)cn(C)c1=O [Compound 37],"Plant response rating, Galium",[1]; [18],90
same,"Plant response rating, Galium",[1]; [20],100
same,"Plant response rating, Corn",corn (Zea mays); [18],20
same,"Plant response rating, Corn",corn (Zea mays); [20],80
same,"Plant response rating, Pigweed",[2]; [18],50
same,"Plant response rating, Pigweed",[2]; [20],50
same,"Plant response rating, Blackgrass",[3]; [18],80
same,"Plant response rating, Blackgrass",[3]; [20],90
same,"Plant response rating, Kochia",kochia (Bassia scoparia) [4]; [18],60
same,"Plant response rating, Kochia",kochia (Bassia scoparia) [4]; [20],70
same,Barnyardgrass plant response rating,[5]; 125 g ai/ha,90
same,"Plant response rating, Barnyardgrass",[5]; 500 g ai/ha,90
same,Kochia plant response rating,kochia (Bassia scoparia) [6]; 125 g ai/ha,80
same,"Plant response rating, Kochia",kochia (Bassia scoparia) [6]; 500 g ai/ha,90
same,"Plant response rating, Wheat",[7]; [18],80
same,"Plant response rating, Wheat",[7]; [20],80
same,"Plant response rating, Ryegrass, Italian",[8]; [18],90
same,"Plant response rating, Ryegrass, Italian",[8]; [20],90
same,"Plant response rating, Foxtail, Giant",[9]; [18],90
same,"Plant response rating, Foxtail, Giant",[9]; [20],90
same,Ragweed plant response rating,[10]; 125 g ai/ha,40
same,"Plant response rating, Ragweed",[10]; 500 g ai/ha,80
same,"Foxtail, Giant plant response rating",[11]; 125 g ai/ha,100
same,"Plant response rating, Foxtail, Giant",[11]; 500 g ai/ha,100
same,"Plant response rating, Ragweed",[12]; [18],30
same,"Plant response rating, Ragweed",[12]; [20],70
same,Pigweed plant response rating,[13]; 125 g ai/ha,50
same,"Plant response rating, Pigweed",[13]; 500 g ai/ha,90
same,"Ryegrass, Italian plant response rating",[14]; 125 g ai/ha,100
same,"Plant response rating, Ryegrass, Italian",[14]; 500 g ai/ha,100
same,"Plant response rating, Barnyardgrass",[15]; [18],90
same,"Plant response rating, Barnyardgrass",[15]; [20],90
